From ChEMBL document CHEMBL1148045, “Dactyltronic acids from the sponge Dactylospongia elegans” (J Nat Prod, 1994)
Values after ≈ are worked out from the molar mass of the structure shown.

Tests used:
[1] = tested on: P388; assay: Cytotoxicity against mouse P388 cells; assay type: functional, cell-based
[2] = tested on: A549; assay: Cytotoxicity against human A549 cells; assay type: functional, cell-based

**Q.** Which results are given for C=C1CCC[C@H]2[C@](C)(CC(=O)C3=C(O)C(OC)OC3=O)[C@@H](C)CC[C@]12C (some centres not stated) [DACTYLTRONIC ACID]?
**A.** IC50 [1]: 10 µg/mL (≈ 27.6 µM); IC50 [2]: 10 µg/mL (≈ 27.6 µM)
